Laboratory results published in patent publication US6593331B2, “Method for treatment of pain” (Laboratories UPSA, priority 2001, dated 2003).

Experiments:
[1] = test system: albino rats; test: rat hindpaw thermal escape paradigm (hindpaw withdrawal test for analgesia, acute pain); format: in vivo; conditions: for analgesic effect of co-administration with acetaminophen compared to either compound given alone: hydroxyazapirone 5 mg/kg + acetaminophen 300 mg/kg, ip; for hindpaw thermal escape response/latency compared to vehicle (saline+PETW): n=5-8 rats per group
Text: To assess the thermally evoked paw-withdrawal response, a commercially available device was used. Specifics of device construction and operation have been published previously (Dirig D M, Salami A, Rathbun M L, Ozaki G T, Yaksh T L. Characterization of variables defining hindpaw withdrawal latency evoked by radiant thermal stimuli. J Neurosci Methods. Oct. 3, 1997; 76(2):183-91). This device is comprised of a glass surface on which the rats were placed individually in Plexiglas cubicles (9×22×25 cm). The surface is maintained at 30° C. by a feedback-controlled, under-glass, forced-air heating system. The thermal nociceptive stimulus originates from a projection bulb below the glass that can be manipulated in a two-dimensional axis on ball bearing slides. This apparatus allows the stimulus to be delivered separately to each hind paw with the aid of an angled mirror mounted on the stimulus source. A timer is actuated with the light source, and escape latency is defined as the time between stimulus onset and the display of a brisk paw withdrawal (detected by photodiode motion sensors that stops the timer and terminates the stimulus; cut-off time for a non-response is 20 sec which triggers automatic termination of the stimulus). In the present study, animals are placed in test boxes for 30 min acclimation and then baseline escape latency is assessed separately for each hindpaw (left and right) at −15 min. All drugs are delivered at 0 min by the intraperitoneal (i.p.) route in a volume of 3 ml/kg. The vehicle for 6-hydroxybuspirone was 0.9% sodium chloride (Saline). For 3-hydroxygepirone the vehicle was deionized H2O plus a few drops of hydrochloric acid. For acetaminophen (Sigma, A7085) the vehicle was 40% polyethylene glycol 400 (PEG-400), 10% EtOH, 15% Tween 80, and 35% deionized H2O (PETW). Acetaminophen was disolved sequentially in two parts: 1) first into a solution of 80% PEG 400+20% EtOH, and 2) then slowly added to it was an equal volume of 30% Tween 80+70% deionized H2O (sonicated as needed). Each animal received two injections at time zero. Specifically, animals were tested in one of the following 6 treatment conditions (abbreviations used in figures are shown under “Key” below):
Following drug administration, thermal escape latencies are measured at 15, 30, 60, 90 and 120 min (mean of both paws is used for statistical analysis).

[2] = test system: mouse; test: mouse hot plate test (procedure of Eddy, et al.); format: in vivo; conditions: 6-hydroxybuspirone to acetaminophen weight ratios of 1:3, 1:10 and 1:30
[3] = hydroxyazapirone alone, 5 mg/kg ip
[4] = acetaminophen alone, 300 mg/kg ip

Row | SMILES | analgesic effect of co-administration with acetaminophen compared to either compound given alone [1] | hindpaw thermal escape response/latency compared to vehicle (saline+PETW) [1, 3] | potentiation of acetaminophen in hot plate test [2] | time of peak analgesic effect post injection ([1]; 3-hydroxygepirone alone, 5 mg/kg ip) | time of peak analgesic effect post injection [1, 4] | hindpaw thermal escape response/latency compared to vehicle (saline+PETW) [1, 4]
1 | O=C1CC2(CCCC2)C(O)C(=O)N1CCCCN1CCN(c2ncccn2)CC1 (centres unmarked) [6-hydroxybuspirone, 6-Hydroxy-8-[4-[4-(2-pyrimidinyl)-piperazinyl]-butyl]-8-azaspiro[4.5]-7,9-dione] | analgesic enhancing effect | elevated significantly above vehicle | potentiation of acetaminophen | – | – | –
2 | CC1(C)CC(=O)N(CCCCN2CCN(c3ncccn3)CC2)C(=O)C1O (centres unmarked) [3-hydroxygepirone, 4,4-Dimethyl-3-hydroxy-1-[4-[4-(2-pyrimidinyl)-1-piperazinyl]butyl]-2,6-piperidinedione] | analgesic enhancing effect | elevated significantly above vehicle | – | 120 min | – | –
3 | CC(=O)Nc1ccc(O)cc1 [acetaminophen, reference compound] | – | – | – | – | 120 min | elevated significantly above vehicle
